In test [1] the test system is streptavidin. The experiment in a line: ELISA for streptavidin binding of purified His6-tagged leader-core peptides. Particulars: plates coated with 100 nM streptavidin; for streptavidin binding, effect of reducing conditions: 10 mM DTT vs non-reducing; for streptavidin binding, dependence on ProcM co-expression: peptide produced with or without ProcM, 1 h room temperature, anti-His detection. How it is done:
Peptide candidates identified by phage display were produced and purified as leader-core peptides as described above. 384 well Maxisorp plates were coated with uPA or streptavidin (100 nM each) overnight at 4 °C. After washing and blocking the plates as described above, serial dilutions of the peptide preparations in PBST containing 0.5% (w v^−1) BSA (and 10 mM DTT for anti-streptavidin replicates) were added in duplicate, and plates incubated for 1 h at room temperature, shaking. Detection of bound peptides with AP-conjugated anti-His IgG was performed as described above.
Background: In an ELISA, binding on a coated surface is turned into a signal by an enzyme label.

Test [2] relates to lacticin 481-sensitive L. lactis cremonis (HP). As to the kind of experiment: Growth inhibition, filter-disc bioactivity assay (lacticin 481). The test is classed as cell-based, L. lactis subsp. cremonis (HP). As to conditions: ProcA3.3-LctA produced as C-terminal MBP fusion in E. coli with ProcM; 20 µM leader-core peptide, trypsin treated; 40 µl on filter disc. From the text:
(§1) MBP IEGR His6 leader core peptide
(§2) LctA-core […] NisA-core […]
(§3) ProcM enz yme NisBC enzymes […]
(§4) modified KGGSGVIHAbuIAHEANMNAWQFVFDhbAAS modified IDhbAIDhaLAAbuPGAKAbuGALMGANMKAbuAAbuAHASIHVDhaK […]
(§5) 1: PBS + trypsin 1: PBS + trypsin
(§6) 2: Authentic lacticin 481 2: Authentic Nisin
(§7) 3: MBP_His6_P roc A 3. 3-LctA + trypsin 3: MBP_His6_NisA + trypsin
(§8) 4: MBP_His6_P roc A 3. 3-Lc tA + ProcM + trypsin 4: MBP_His6_NisA + NisBC + trypsin
(§9) Supplementary Figure 3 Bioactivit y assay of lanthipeptides produced as C-term inal fusions to MBP.
(§10) (a) Schem atic drawing of the MBP-fusion vector used for expression of a chim eric peptide consisting of the ProcA3.3 leader sequence fused to the core of LctA (left panel) and NisA (right panel; full sequences shown in Supplem entary Table 5). The sequence of the unm odified and m odified core peptides as reported in the literature are indicated1. The arrow indicates a tr ypsin cleavage site used to release the m ature core peptide. (b) Growth inhibition of lacticin 481- sensitive L. lactis cremonis (HP) by filter- disc spotted peptide solutions. (1) Trypsin treated PBS (negative control); (2) authentic lacticin 481 (positive control); (3) ProcA3.3-LctA produced as C-term inal MBP fusion in E. coli without ProcM co- expression and treated with tr yps in; (4) ProcA3.3- LctA produced as C-term inal MBP fusion in E. coli with ProcM co-ex pression and treated with tr ypsin. […]

Test [3] deals with nisin-sensitive L. lactis NZ9000. As to the kind of experiment: Growth inhibition, filter-disc bioactivity assay (nisin). The test is classed as cell-based. Particulars: NisA produced as C-terminal MBP fusion in E. coli with NisBC; 20 µM leader-core peptide, trypsin treated; 40 µl on filter disc.
From the text: as §1, §2, §3, §4, §5, §6, §7, §8, §9, §10

For test [4], the target named is T1, human uPA (Homo sapiens, UniProt P00749).
T1 construct: purchased ProsPec enz-264-c
As to the kind of experiment: Inhibition of uPA catalytic activity, fluorogenic substrate. As to conditions: PEP333 leader-core peptide, ProcM-modified; 1.5 nM human uPA; 50 µM Z-Gly-Gly-Arg 7-amido-4-methylcoumarin; 10 mM Tris-HCl pH 7.4, 5% DMSO; 25°C, 30 min; fluorescence 355/460 nm; experiment repeated three times; read-out: inhibitory constant Ki. In kind it is biochemical. As to the method:
Determination of inhibitory activit y of lanthipeptides
The inhibitory activities of ProcM-modified and non- modified anti-uPA peptides were determined as previously described2. In brief, 1.5 nM human uPA (ProsPec, # enz-264- c; purified by size exclusion chromatography) were incubated with 50 µM of the fluorogenic substrate Z-Gly-Gly-Arg 7 -am ido-4-methylcoumarin hydrochloride (Santa Cruz Biotechnology, # sc-208012) and different concentrations of anti-uPA peptides. Substrate and peptides were diluted in 10 mM Tris-HCl (pH 7.4), 150 mM NaCl, 10 mM MgCl2, 1 m M CaCl2, 0.1% (w v-1) BSA, 0.01% Triton X-100, 5% (v v-1) DMSO buff er. The uPA activity was measured by monitoring the change in fluorescence intensity after an incubation step at 25°C for 30 minutes (black 96 well plate with clear flat bottom, Corning CellBIND, # 3340; excitation at 355 nm, emission recorded at 460 nm, Tecan M200pro, […]). A […]
Anal ysis of phage-selected peptides by mass spectrometry
Samples were analyzed by FTMS using a Shimadzu UFLC system (Shimadzu, Den Bosch, The Netherlands) coupled on- line via the HESI interface with a LTQ–Orbitrap- XL mass spectrometer (Thermo Fisher Scientific., San Jose, CA). Samples were loaded onto an Acquity UPLC, BEH C18. 50 x 2.1mm, 1.7µM (Waters, Ireland). […]

Consider five substances from paper PMC5686179, “Phage display and selection of lanthipeptides on the carboxy-terminus of the gene-3 minor coat protein” (Nature Communications, 2017).

Ends that are not written are not given here.

In the case of “ANCIQHLTHSPTVHKYFCPAAGPHHHHHH (also: bicyclic or more (positions not given here)) [PEP331]”, in test [1], the “streptavidin binding, effect of reducing conditions” value is on record as “only a slight reduction in binding was noticed in a reducing environment” and the “streptavidin binding, dependence on ProcM co-expression” value was “strictly dependent on post-translational modifications introduced by ProcM”. Regarding “TNCGRKMSATYSGQKMYCIAAGPHHHHHH (also: bicyclic or more (positions not given here)) [PEP330]”, in test [1], the “streptavidin binding, effect of reducing conditions” value is reported as “reducing conditions had only minor effects” and the “streptavidin binding, dependence on ProcM co-expression” value is “bound streptavidin regardless of ProcM co-expression”. With “KGGSGVIHAbuIAHEANMNAWQFVFDhbAAS (bicyclic or more) [lacticin 481]”, the antimicrobial activity result in test [2] is listed as “confirmed their antimicrobial activity”. In the case of “IDhbAIDhaLAAbuPGAKAbuGALMGANMKAbuAAbuAHASIHVDhaK (bicyclic or more) [nisin, antimicrobial lantibiotic, expressed as C-terminal MBP fusion with NisBC]”, the antimicrobial activity entry in test [3] is listed as “confirmed their antimicrobial activity”. In general, Ki refers to a measure of affinity in units of concentration, obtained from inhibition or displacement. For the substance “AICQIADATRTGENRKCLAAGPHHHHHH (also: sidechain bridge or staple (positions not given here)) [PEP333]”, the Ki in test [4] is 564 nM.
